According to patent publication US8524897B2, “Crystalline oxazine derivative” (Novartis AG, priority 2011, dated 2013):

Columns and labels:
[1] = Test 4: Inhibition of cellular release of amyloid peptide 1-40; type: cell-based, Chinese hamster; conditions: Cricetulus griseus, CHO, 24 h, mean IC50, Test 4, CHO cells with human APP, read-out: Amyloid-β1-40 release IC50
Experimental: (§1) Test 4: Inhibition of Cellular Release of Amyloid Peptide 1-40
(§2) Chinese hamster ovary cells are transfected with the human gene for amyloid precursor protein. The cells are plated at a density of 8000 cells/well into 96-well microtiter plates and cultivated for 24 hours in DMEM cell culture medium containing 10% FCS. The test compound is added to the cells at various concentrations, and the cells are cultivated for 24 hours in the presence of the test compound. The supernatants are collected, and the concentration of amyloid peptide 1-40 is determined using state of the art immunoassay techniques, for example sandwich ELISA, homogenous time-resolved fluorescence (HTRF) immunoassay, or electro-chemiluminescence immunoassay.

[2] = Chemical stability of amorphous versus crystalline material exposed to high temperature/humidity for one week (UPLC purity, solid state); type: physicochemical
Experimental: Chemical stability of amorphous versus crystalline 5-cyano-3-methyl-pyridine-2-carboxylic acid [3-((3R,6R)-5-amino-3,6-dimethyl-6-trifluoromethyl-3,6-dihydro-2H-[1,4]oxazin-3-yl)-4-fluoro-phenyl]-amide when exposed to high temperature/humidity for one week
The stability of amorphous versus crystalline 5-cyano-3-methyl-pyridine-2-carboxylic acid [3-((3R,6R)-5-amino-3,6-dimethyl-6-trifluoromethyl-3,6-dihydro-2H-[1,4]oxazin-3-yl)-4-fluoro-phenyl]-amide was tested by exposing the amorphous or crystalline material to high temperature and/or humidity for one week. After storage at high temperature and/or humidity, bulk amorphous or crystalline material was sampled and dissolved in acetonitrile and the purity analysed in a Aquity UPLC from Waters using the following conditions: […]

[3] = system: amyloid peptide 1-40 release from Chinese hamster ovary cells transfected with the human gene for amyloid precursor protein; test: Test 4: Inhibition of cellular release of amyloid peptide 1-40; type: cell-based; conditions: mean IC50, Test 4, CHO cells with human APP, 24 hours; read-out: Amyloid-β1-40 release IC50
Experimental: as §1, §2

IC50 [1]	Purity-% ([2]; 50° C., one week, listed as Amorphous)	Purity-% ([2]; 80° C., one week, listed as Amorphous)	Purity-% ([2]; RT, 0 (start), listed as Amorphous)	Purity-% ([2]; RT, one week)	IC50 [3]	Purity-% ([2]; 40° C./75% RH, one week)	Solid State ([2]; 40° C./75% RH, one week)	Solid State ([2]; 50° C., one week)	Purity-% ([2]; 50° C., one week, listed as Crystalline)	Solid State ([2]; 80° C., one week, Low = lower peaks when measured by XRPD)	Purity-% ([2]; 80° C., one week, listed as Crystalline)	Solid State ([2]; RT, 0 (start))	Purity-% ([2]; RT, 0 (start), listed as Crystalline)	Structure (SMILES)
2.6 nM	91.6%	55.8%	96.4%	96.3%										Cc1cc(C#N)cnc1C(=O)Nc1ccc(F)c([C@]2(C)CO[C@@](C)(C(F)(F)F)C(N)=N2)c1 [Example 1 Amorphous, 5-cyano-3-methyl-pyridine-2-carboxylic acid [3-((3R,6R)-5-amino-3,6-dimethyl-6-trifluoromethyl-3,6-dihydro-2H-[1,4]oxazin-3-yl)-4-fluoro-phenyl]-amide]
					2 nM	98.23%	Crystalline	Crystalline	98.05%	Crystalline,	98.01%	Crystalline	98.7%	Cc1cc(C#N)cnc1C(=O)Nc1ccc(F)c([C@]2(C)CO[C@@](C)(C(F)(F)F)C(N)=N2)c1 [Example 1 Crystalline, 5-cyano-3-methyl-pyridine-2-carboxylic acid [3-((3R,6R)-5-amino-3,6-dimethyl-6-trifluoromethyl-3,6-dihydro-2H-[1,4]oxazin-3-yl)-4-fluoro-phenyl]-amide]
